Measurements taken from patent publication US8703970B2, “Compounds having photochemically removable protecting groups based on an electrocyclic reaction between a chromophore attached via an anilide group to a benzothiophene ring” (Marquette University, priority 2012, dated 2014).
Where two headings read alike, the source gives them in different places.

What was measured:
[1] = Photolysis with 120 W sunlamp for 72 h; assay type: physicochemical; conditions: gives exclusively product 26 or 27
Procedure: The photolyses of ester 8 (LG^−=Cl^−) and acids 9 (LG^−=Cl^−, PhS^−, HS^−, PhCH2S) were repeated with a 120 W sunlamp for 72 h under otherwise the same conditions described above for the Hanovia runs.

[2] = Product quantum yield determination for photochemical leaving group expulsion at 390 nm; assay type: physicochemical; conditions: for quantum yield Φ for formation of 27: 2.0×10^−3 M acid in N2 saturated 75% aq buffer in CH3CN; for product quantum yield Φ: N2 saturated 19% H2O in dioxane containing 100 mM buffer (1.8×10^−3 M for 8; similar conditions for 7), products quantified by NMR
Procedure: (§1) For the ester ε=5600 M^−1 cm^−1, while the acid has ε=4200 M^−1 cm^−1. For preparative photolyses Pyrex-filtered light from a Hanovia medium pressure mercury lamp was used. A sunlamp was also effective at photolysing all of the compounds in the study. Quantum yields were determined at 390 nm using a monochromator for wavelength selection utilizing a high pressure mercury lamp as the light source.
A semi-micro optical bench was used for quantum yield determinations, similar to the apparatus described by Zimmerman.^32 Light from a 200 W high-pressure mercury lamp was passed through an Oriel monochromator, which was set to 390 nm wavelengths. The light was collimated through a lens. A fraction of the light was diverted 90° by a beam splitter to a 10×3.6 cm side quartz cylindrical cell containing an actinometer. The photolysate was contained in a 10×1.8 cm quartz cylindrical cell of 25 mL volume. The concentrations of the reactants were 0.0018-0.0030 M. All quantum yields reported herein were the average of two or more independent runs. Behind the photolysate was mounted a quartz cylindrical cell containing 25 mL of actinometer. Light output was monitored by ferrioxalate actinometery using the splitting ratio technique.
For 7 (LG^−=Cl^−), 8 (LG^−=Cl^−), and 10 (LG^−=Cl^−) 50 mL of water was added to the photolysate, and the diluted photolysate was extracted four times with 30 mL of CH2Cl2. The combined extracts were washed twice with 30 mL water, brine, and concentrated in vacuo. The residue was dissolved in d6-DMSO. DMF was added as a standard for NMR analyses (vide infra). However, for 7 (LG^−=Cl^−) the NMR solvent was CDCl3 and the NMR standard was DMSO.
For 9 (LG^−=Cl^−, PhS^−, HS^−, PhCH2S^−) the photolysate was adjusted to pH 2 by addition of 3 N HCl. The resultant precipitate was collected by suction filtration and washed with 50 mL water. The precipitate was transferred to a flask, and any untransferred precipitate was dissolved in DMSO and combined with the transferred precipitate. The DMSO was evaporated to dryness under vacuum and DMSO-d6 was added along with DMF as a standard for NMR analysis.
Products were analyzed by ^1H NMR spectroscopy using DMF or DMSO as the internal standard and conversions were 12-16%. At the concentrations used most of the incident light would have been absorbed near the front face of the photolysis cell, raising the concern that the photoproducts formed during the photolyses could competitively absorb the incident light, reducing the light absorbed by the reactants. This internal filter effect would depress the observed Φ values below the actual values. In the case of 8 (LG^−=Cl^−) the Φ was thus redetermined at an 18-fold lower concentration of 1.0×10^−4 M of reactant and found to be within experimental error of the value obtained at higher concentration at 14% conversions for duplicate runs. Due to the very low concentrations of the photoproduct 26 formed, it had to be quantified by absorption spectroscopy of the exposed photolysates without any workup. The product absorption at 432 nm was deconvoluted from the tailing absorption of reactant using Origin 8.6 software (OriginLab). After deconvolution, concentrations were obtained from a calibration curve constructed from known mixtures of reactant and product.

Absorption spectra = assay type: physicochemical; conditions: for ε at absorption maximum: 385 nm; for ε at absorption maximum / absorption maximum: aqueous dioxane or acetonitrile
Procedure: as §1
Photoproduct 26 was identified by ^1H NMR spectroscopy and elemental analysis. […] Regioisomer 28 would have shown only four vicinal couplings in the COSY spectrum. […] The compound was obtainable only as a powder, despite repeated attempts to obtain crystals for structure determination using X-ray diffraction.

[3] = Preparative photolysis with Pyrex-filtered Hanovia medium pressure mercury lamp, products quantified by NMR; assay type: physicochemical; conditions: for chemical yield of leaving group expulsion / photoproduct formation in preparative photolysis: N2 saturated aqueous 100 mM phosphate buffer (pH 7) in CH3CN, NMR integration
Procedure: as §1
Similarly, preparative photolysis of […] acid 9 (LG^−=Cl^−) in N2 saturated 75% H2O in CH3CN containing 100 mM phosphate buffer (pH 7) gave the single regioisomeric photoproduct 27 in 98% yield by NMR integration, as above for 8 (LG^−=Cl^−). The regiospecificity was again established by 600 MHz ^1H NMR COSY. […] Photolysis of acid 9 (LG^−=PhS^−, HS^−, PhCH2S^−) under the same conditions as 8 (LG^−=Cl^−) also gave photoproduct 27 in 98-100% yields upon expulsion of these thiolate leaving groups. For acid 9 (LG^−=PhCH2S^−) the released benzyl thiol was quantified in photolyses of 4.5×10^−3 M solutions of 35% D2O in CD3CN containing phosphate buffer (as above) contained in NMR tubes. Yields were 96% thiol and 99% of 27 at 100% conversion of reactant by ^1H NMR spectroscopy. Very similar results were found when DMSO-d6 was the photolysis solvent.
The regiospecific formation of 26 or 27 in the preparative photolyses of ester 8 or acids 9 requires the presence of the ester and carboxylic acid substituents attached to the C-6 position of the benzothiophene ring system of the reactants. In contrast, photolyses of the unsubstituted benzothiophene ring system 7 (LG^−=Cl^−) in 16% water containing 100 mM phosphate buffer in CH3CN gave both regioisomeric photoproducts 30 and 31 as a 42:58 mixture, respectively, in 100% yield according to 400 MHz ^1H NMR spectroscopy (Scheme 6).
To determine whether a “heavy atom effect” promoted intersystem crossing of the singlet excited state to the triplet excited state, work focused upon the C-7 bromide of thioxanthone ester 10 (LG^−=Cl^−). Preparative photolysis of ester 10 in N2 saturated 19% H2O in CH3CN containing 100 mM phosphate buffer (pH 7), as above for ester 8 (LG^−=Cl^−), exclusively gave regioisomer 32 in 99% yield, and 33 was not observed by ^1H NMR spectroscopy of the photolysate (Scheme 7).
A 0.010 M solution of 8 (LG^−=Cl^−) in N2 saturated 17% H2O in CH3CN containing 100 mM phosphate buffer at pH 7 was irradiated with a 450 W Hanovia medium pressure mercury lamp with a Pyrex filter for 90 min. The photoproduct was isolated by filtration. The photoproduct was washed with H2O and a small amount of CHCl3 and dried under vacuum. The product was a yellow powder, mp >300° C. […] A COSY spectrum in d6-DMSO was obtained (see Supporting Information).
A 0.010 M solution of 13 (LG^−=Cl^−) in N2 saturated 75% H2O in CH3CN containing 100 mM phosphate buffer at pH 7 was irradiated with a 450 W Hanovia medium pressure mercury lamp with Pyrex filter for 90 min. The photolysate was acidified to pH 2 with conc. HCl to precipitate the photoproduct carboxylic acid 27. The photoproduct was obtained by filtration, washing with H2O, and drying under vacuum, as a yellow powder, mp >300° C.
A 0.010 M solution of 7 (LG^−=Cl^−) in N2 saturated 17% H2O in CH3CN containing 100 mM phosphate buffer at pH 7 was irradiated with a 450 W Hanovia medium pressure mercury lamp with a Pyrex filter for 90 min. The photoproduct was isolated by filtration as a mixture of two isomers, 30, 31. The mixture of product isomers was dissolved in hot DMSO. Solid photoproduct isomer 31 was obtained upon cooling of the hot DMSO and filtration. Photoproduct isomer 31 was washed with water and methanol and dried under vacuum to obtain 31 as floppy powder, mp >300° C. Solid photoproduct isomer 30 was obtained upon addition of water to the above DMSO filtrate by filtration, after washing with water and methanol. The photoproduct isomer 30 was crystallized from CHCl3 to give a yellow crystalline solid, mp 271-273° C. […]

[4] = Stern-Volmer quenching of the photoreaction by piperylene; assay type: physicochemical
Excerpt: In air-saturated solution quantum yields for ester 8 (LG^−=Cl^−) decreased to Φ=0.019. […] Furthermore, quenching by 9.2-37×10^−[…] piperylene as quencher Q gave a slope kqτ=7.03×10^4 M^−1 for a Stern-Volmer plot Φ°/Φ vs. [Q](data not shown). If it is assumed that kq=ca. 10^10 M^−1 s^−1, then τ would be ca. 7 μs.

[5] = cited from earlier work
[6] = 4.5×10^−3 M in 35% D2O in CD3CN containing phosphate buffer, 100% conversion, 1H NMR

## CN(C(=O)c1sc2cc(C(=O)O)ccc2c1Cl)c1ccc2sc3ccccc3c(=O)c2c1 [9 (LG^−=Cl^−), 3-chloro-2-[methyl-(9-oxo-9H-thioxanthen-2-yl)-carbamoyl]-benzo[b]thiophene-6-carboxylic acid]
[1]
  leaving group expulsion with sunlamp: essentially quantitatively
[2]; 390 nm
  quantum yield Φ for formation of 27: 0.034
Absorption spectra
  ε at absorption maximum: 4200 M⁻¹ cm⁻¹
  absorption maximum: 385 nm
[3]
  chemical yield of leaving group expulsion / photoproduct formation in preparative photolysis: 98%
other
  melting point: 286 to 287 °C

## CN(C(=O)c1sc2ccccc2c1Cl)c1ccc2sc3ccccc3c(=O)c2c1 [7 (LG^−=Cl^−), 3-chloro-benzo[b]thiophene-2-carboxylic acid methyl-(9-oxo-9H-thioxanthen-2-yl)amide]
[2]; 390 nm
  product quantum yield Φ: 0.069
[3]
  chemical yield of leaving group expulsion / photoproduct formation in preparative photolysis: 100%

## CN(C(=O)c1sc2cc(C(=O)O)ccc2c1S)c1ccc2sc3ccccc3c(=O)c2c1 [9 (LG^−=HS^−), 3-mercapto-2-[methyl-(9-oxo-9H-thioxanthen-2-yl)-carbamoyl]-benzo[b]thiophene-6-carboxylic acid]
[1]
  leaving group expulsion with sunlamp: essentially quantitatively
[2]; 390 nm
  quantum yield Φ for formation of 27: 0.0079
other
  melting point: 210 to 212 °C

## 6-methylcarboxylate-[1]benzothiopheno[2,3-c]benzo[a]anthracene-4-methyl-4H-7-thia-4-aza-3,12-dione [compound 26]
Absorption spectra; 432 nm, aq dioxane containing phosphate buffer
  ε at long wavelength maximum: 10300 M⁻¹ cm⁻¹
Absorption spectra; aq dioxane containing phosphate buffer
  long wavelength absorption maximum: 432 nm

## COC(=O)c1ccc2c(Cl)c(C(=O)N(C)c3ccc4sc5ccc(Br)cc5c(=O)c4c3)sc2c1 [10 (LG^−=Cl^−), 2-[(7-bromo-9-oxo-9H-thioxanthen-2-yl)-methyl-carbamoyl]-3-chloro-benzo[b]thiophene-6-carboxylic acid methyl ester]
[2]; 390 nm
  product quantum yield Φ: 0.053
[2]; bromo ester 10 vs ester 8
  quantum yield higher than Φ=0.039 of ester 8 (LG^−=Cl^−): 38%
[3]
  chemical yield of leaving group expulsion / photoproduct formation in preparative photolysis: 99%
other
  melting point: 237 to 239 °C

## COC(=O)c1ccc2c(Cl)c(C(=O)N(C)c3ccc4sc5ccccc5c(=O)c4c3)sc2c1 [8 (LG^−=Cl^−), 3-chloro-2-[methyl-(9-oxo-9H-thiozanthen-2-yl)-carbamoyl]-benzo[b]thiophene-6-carboxylic acid methyl ester]
[1]
  leaving group expulsion with sunlamp: essentially quantitatively
[2]; 390 nm
  product quantum yield Φ: 0.039
[2]; 390 nm, reactant concentration 1.0×10^−4 M, photoproduct quantified by absorption spectroscopy
  quantum yield Φ for photoproduct 26: 0.037
[2]; air-saturated solution
  quantum yield Φ: 0.019
[2]; depending on LG^− basicity or reactant concentration
  quantum yields for reaction (photorelease of leaving group), overall: 0.037-0.039
Absorption spectra
  ε at absorption maximum: 5600 M⁻¹ cm⁻¹
  absorption maximum: 385 nm
[3]
  chemical yield of leaving group expulsion / photoproduct formation in preparative photolysis: nearly quantitative
[4]; 9.2-37×10^−6 M piperylene as quencher, plot Φ°/Φ vs. [Q]
  Stern-Volmer slope kqτ: 70300 M⁻¹
[4]; assuming kq=ca. 10^10 M^−1 s^−1
  triplet excited state lifetime τ: ca. 7 μs

## CN(C(=O)c1sc2cc(C(=O)O)ccc2c1Sc1ccccc1)c1ccc2sc3ccccc3c(=O)c2c1 [9 (LG^−=PhS^−), 2-[methyl-(9-oxo-9H-thioxanthen-2-yl)-carbamoyl]-3-phenylsulfanyl-benzo[b]thiophene-6-carboxylic acid]
[1]
  leaving group expulsion with sunlamp: essentially quantitatively
[2]; 390 nm
  quantum yield Φ for formation of 27: 0.017
other
  melting point: 278 to 279 °C

## O=c1c2ccccc2sc2ccccc12 [thioxanthone]
[5]; in CH3CN
  triplet lifetime: 6.7 μs
[5]; nonpolar hydrocarbon solvent (cyclohexane)
  triplet yield: 0.85
[5]; polar protic solvent (methanol)
  triplet lifetime: 13.3 μs
[5]; polar, protic solvent (CH3OH)
  triplet yield: 0.56

## CN(C(=O)c1sc2cc(C(=O)O)ccc2c1SCc1ccccc1)c1ccc2sc3ccccc3c(=O)c2c1 [9 (LG^−=PhCH2S^−), 3-benzylsulfanyl-2-[methyl-(9-oxo-9H-thioxanthen-2-yl)-carbamoyl]-benzo[b]thiophene-6-carboxylic acid]
[1]
  leaving group expulsion with sunlamp: essentially quantitatively
[2]; 390 nm
  quantum yield Φ for formation of 27: 0.011
[3]; [6]
  yield of 27: 99%
  yield of released benzyl thiol: 96%
other
  melting point: 151 to 152 °C
